Experimental data as given in ChEMBL document CHEMBL3991601, “The target landscape of clinical kinase drugs” (Science, 2017).
Calls of active or inactive are those of the source. Rule as the data show it, for most assays here: actives have a measured Kd and inactives only a lower limit.

Tests used:
Activin receptor type-1 = biological target: T1, Activin receptor type-1 (Homo sapiens, UniProt Q04771)
T1 sequence (Q04771 whole entry): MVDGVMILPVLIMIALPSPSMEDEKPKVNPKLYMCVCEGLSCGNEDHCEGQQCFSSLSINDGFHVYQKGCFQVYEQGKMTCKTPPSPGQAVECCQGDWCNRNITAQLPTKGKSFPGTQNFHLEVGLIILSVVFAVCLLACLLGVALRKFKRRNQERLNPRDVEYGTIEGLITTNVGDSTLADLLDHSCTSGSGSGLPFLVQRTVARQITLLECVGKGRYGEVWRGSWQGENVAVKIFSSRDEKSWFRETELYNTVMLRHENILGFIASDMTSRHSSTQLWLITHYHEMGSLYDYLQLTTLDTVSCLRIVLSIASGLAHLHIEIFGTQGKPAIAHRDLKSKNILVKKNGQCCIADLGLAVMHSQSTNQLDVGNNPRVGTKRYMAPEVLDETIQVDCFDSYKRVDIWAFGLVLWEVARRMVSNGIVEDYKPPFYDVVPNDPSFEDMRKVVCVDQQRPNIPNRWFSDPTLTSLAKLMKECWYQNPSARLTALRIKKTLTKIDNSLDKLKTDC

[1] = biological target: Adenylate kinase 2, mitochondrial (Homo sapiens, UniProt P54819)
Aurora kinase A = biological target: T2, Aurora kinase A (Homo sapiens, UniProt O14965)
T2 sequence (O14965 whole entry): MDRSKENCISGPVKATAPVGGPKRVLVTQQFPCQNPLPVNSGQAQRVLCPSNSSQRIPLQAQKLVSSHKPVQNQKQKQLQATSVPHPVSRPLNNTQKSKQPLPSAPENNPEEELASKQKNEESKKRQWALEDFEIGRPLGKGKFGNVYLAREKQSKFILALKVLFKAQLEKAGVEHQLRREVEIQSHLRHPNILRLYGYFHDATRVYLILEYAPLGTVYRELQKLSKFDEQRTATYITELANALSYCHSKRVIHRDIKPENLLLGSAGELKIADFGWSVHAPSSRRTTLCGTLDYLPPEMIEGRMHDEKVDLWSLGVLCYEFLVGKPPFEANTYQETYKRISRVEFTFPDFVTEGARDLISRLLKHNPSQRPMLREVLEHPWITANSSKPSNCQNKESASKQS

[2] = biological target: Calcium/calmodulin-dependent protein kinase type II subunit gamma (Homo sapiens, UniProt Q13555)
Sequence of Calcium/calmodulin-dependent protein kinase type II subunit gamma (Q13555 whole entry): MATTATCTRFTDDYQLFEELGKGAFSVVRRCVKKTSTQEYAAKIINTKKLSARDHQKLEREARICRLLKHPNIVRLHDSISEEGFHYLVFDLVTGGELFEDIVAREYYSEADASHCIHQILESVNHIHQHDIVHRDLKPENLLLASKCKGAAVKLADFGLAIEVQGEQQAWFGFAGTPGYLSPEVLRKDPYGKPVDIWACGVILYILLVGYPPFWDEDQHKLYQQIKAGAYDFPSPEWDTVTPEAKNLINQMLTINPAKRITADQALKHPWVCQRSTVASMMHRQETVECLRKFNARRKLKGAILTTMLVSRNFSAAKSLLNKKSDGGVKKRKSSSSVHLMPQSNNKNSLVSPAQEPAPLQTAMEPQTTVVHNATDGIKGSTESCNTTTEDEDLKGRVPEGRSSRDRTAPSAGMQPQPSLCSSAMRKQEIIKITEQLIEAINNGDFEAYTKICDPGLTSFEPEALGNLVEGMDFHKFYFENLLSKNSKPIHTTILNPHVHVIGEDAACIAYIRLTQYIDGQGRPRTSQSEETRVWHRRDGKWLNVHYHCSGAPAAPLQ

[3] = biological target: Dual specificity tyrosine-phosphorylation-regulated kinase 1A (Homo sapiens, UniProt Q13627)
[4] = biological target: T3, Mitogen-activated protein kinase kinase kinase 5 (Homo sapiens, UniProt Q99683)
T3 sequence (Q99683 whole entry): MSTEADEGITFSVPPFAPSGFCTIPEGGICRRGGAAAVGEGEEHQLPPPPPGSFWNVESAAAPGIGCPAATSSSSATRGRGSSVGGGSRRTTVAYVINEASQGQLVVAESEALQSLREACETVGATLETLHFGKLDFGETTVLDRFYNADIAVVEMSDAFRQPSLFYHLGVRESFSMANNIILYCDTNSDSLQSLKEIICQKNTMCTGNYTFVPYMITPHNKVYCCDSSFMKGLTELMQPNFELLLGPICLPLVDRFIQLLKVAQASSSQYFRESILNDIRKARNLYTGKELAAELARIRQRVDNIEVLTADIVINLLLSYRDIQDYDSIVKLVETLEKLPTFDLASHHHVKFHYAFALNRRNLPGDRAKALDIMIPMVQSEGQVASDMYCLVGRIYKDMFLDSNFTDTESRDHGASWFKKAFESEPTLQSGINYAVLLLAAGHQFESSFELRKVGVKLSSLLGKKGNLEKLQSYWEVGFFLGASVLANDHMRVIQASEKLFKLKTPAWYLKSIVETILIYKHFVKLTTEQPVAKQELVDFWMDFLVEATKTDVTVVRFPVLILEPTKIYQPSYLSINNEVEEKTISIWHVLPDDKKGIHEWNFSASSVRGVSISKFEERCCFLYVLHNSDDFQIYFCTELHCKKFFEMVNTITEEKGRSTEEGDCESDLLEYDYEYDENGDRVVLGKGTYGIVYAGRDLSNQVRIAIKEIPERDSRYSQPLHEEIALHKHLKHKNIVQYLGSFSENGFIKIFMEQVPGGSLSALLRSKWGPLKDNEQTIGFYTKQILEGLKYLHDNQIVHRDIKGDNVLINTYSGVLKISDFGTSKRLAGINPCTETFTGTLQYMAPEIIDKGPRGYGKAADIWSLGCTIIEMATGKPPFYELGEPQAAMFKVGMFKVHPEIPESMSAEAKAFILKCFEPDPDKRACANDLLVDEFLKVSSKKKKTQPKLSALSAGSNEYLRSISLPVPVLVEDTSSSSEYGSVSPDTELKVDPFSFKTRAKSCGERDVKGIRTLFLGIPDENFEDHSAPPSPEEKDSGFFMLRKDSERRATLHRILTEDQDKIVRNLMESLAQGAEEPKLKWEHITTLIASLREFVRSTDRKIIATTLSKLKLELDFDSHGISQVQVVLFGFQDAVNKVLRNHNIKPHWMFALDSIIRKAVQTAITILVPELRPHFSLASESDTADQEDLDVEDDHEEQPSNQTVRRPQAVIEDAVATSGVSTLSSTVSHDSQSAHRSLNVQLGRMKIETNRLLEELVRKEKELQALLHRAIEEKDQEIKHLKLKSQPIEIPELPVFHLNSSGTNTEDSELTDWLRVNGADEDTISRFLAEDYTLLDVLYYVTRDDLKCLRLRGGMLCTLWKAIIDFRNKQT

[5] = biological target: Mitogen-activated protein kinase kinase kinase kinase 1 (Homo sapiens, UniProt Q92918)
Sequence of Mitogen-activated protein kinase kinase kinase kinase 1 (Q92918 whole entry): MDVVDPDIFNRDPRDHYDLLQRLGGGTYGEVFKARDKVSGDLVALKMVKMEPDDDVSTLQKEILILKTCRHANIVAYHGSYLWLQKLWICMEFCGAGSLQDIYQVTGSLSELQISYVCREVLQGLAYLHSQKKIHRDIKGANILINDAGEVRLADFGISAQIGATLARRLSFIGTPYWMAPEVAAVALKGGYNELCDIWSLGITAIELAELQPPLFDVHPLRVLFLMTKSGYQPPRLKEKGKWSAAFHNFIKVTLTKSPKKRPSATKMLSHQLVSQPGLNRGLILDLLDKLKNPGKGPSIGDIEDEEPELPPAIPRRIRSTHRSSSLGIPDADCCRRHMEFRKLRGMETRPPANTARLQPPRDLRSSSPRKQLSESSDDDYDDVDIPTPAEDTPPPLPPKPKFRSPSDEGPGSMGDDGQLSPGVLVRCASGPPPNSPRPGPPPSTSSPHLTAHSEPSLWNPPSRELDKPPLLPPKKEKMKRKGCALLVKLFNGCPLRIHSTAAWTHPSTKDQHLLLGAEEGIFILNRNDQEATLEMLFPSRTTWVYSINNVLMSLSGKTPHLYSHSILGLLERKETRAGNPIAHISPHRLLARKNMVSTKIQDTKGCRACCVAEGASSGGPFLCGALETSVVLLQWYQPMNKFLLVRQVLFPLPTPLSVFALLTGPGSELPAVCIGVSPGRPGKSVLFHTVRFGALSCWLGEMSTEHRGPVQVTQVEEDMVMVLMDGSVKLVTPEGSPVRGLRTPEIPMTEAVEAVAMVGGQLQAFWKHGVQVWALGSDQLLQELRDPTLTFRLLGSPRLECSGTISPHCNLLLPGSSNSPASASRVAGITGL

[6] = biological target: Serine/threonine-protein kinase N2 (Homo sapiens, UniProt Q16513)
Sequence of Serine/threonine-protein kinase N2 (Q16513 whole entry): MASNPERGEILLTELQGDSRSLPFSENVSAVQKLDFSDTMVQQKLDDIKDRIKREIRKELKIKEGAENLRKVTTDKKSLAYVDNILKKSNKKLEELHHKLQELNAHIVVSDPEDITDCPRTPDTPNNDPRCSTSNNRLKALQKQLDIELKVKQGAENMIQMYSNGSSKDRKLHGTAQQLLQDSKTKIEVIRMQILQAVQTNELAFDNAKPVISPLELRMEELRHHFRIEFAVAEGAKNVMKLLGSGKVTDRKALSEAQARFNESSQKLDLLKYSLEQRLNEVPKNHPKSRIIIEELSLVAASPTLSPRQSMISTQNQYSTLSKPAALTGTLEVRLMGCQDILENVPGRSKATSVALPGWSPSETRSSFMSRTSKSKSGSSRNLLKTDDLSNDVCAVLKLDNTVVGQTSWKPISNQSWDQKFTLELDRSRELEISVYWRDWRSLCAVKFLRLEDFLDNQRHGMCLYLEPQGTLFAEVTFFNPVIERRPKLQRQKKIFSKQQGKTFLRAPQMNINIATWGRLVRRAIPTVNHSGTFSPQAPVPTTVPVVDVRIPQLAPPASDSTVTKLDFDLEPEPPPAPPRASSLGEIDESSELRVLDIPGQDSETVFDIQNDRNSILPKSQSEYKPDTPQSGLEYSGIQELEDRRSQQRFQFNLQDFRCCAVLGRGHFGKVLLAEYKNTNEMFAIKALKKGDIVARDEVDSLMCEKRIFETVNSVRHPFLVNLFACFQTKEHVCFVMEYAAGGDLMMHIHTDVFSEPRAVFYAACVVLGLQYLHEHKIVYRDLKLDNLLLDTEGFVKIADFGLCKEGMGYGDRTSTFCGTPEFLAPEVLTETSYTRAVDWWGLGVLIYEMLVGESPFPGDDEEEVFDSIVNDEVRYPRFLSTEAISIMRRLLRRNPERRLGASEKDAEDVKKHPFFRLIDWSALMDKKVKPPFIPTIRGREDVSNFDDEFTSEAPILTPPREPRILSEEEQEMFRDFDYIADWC

[7] = biological target: T4, Serine/threonine-protein kinase STK11 (Homo sapiens, UniProt Q15831)
T4 sequence (Q15831 whole entry): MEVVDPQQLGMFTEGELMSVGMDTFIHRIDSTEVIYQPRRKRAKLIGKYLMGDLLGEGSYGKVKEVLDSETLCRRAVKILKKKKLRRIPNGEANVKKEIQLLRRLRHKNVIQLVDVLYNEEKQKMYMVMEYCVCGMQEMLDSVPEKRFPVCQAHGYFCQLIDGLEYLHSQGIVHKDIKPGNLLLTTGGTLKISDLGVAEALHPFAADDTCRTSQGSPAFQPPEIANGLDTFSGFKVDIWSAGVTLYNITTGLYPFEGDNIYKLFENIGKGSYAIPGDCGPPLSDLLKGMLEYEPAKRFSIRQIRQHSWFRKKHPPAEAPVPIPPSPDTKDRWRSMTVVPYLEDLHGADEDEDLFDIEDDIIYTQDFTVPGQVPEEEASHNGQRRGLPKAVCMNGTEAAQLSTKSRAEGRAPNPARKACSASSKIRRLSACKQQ
Also: in the data inactive means no Kd found up to 30 µM.

SMILES	Kd (Activin receptor type-1)	Kd [1]	Kd (Aurora kinase A)	Kd [2]	Kd [3]	Kd [4]	Kd [5]	Kd [6]	Kd [7]
Cc1cc(-c2cc(O)ccc2Cl)cc2nnc(Nc3ccc(OCCN4CCCC4)cc3)nc12	> 30 µM (inactive)	> 30 µM (inactive)	> 30 µM (inactive)	> 30 µM (inactive)	> 30 µM (inactive)	> 30 µM (inactive)	> 30 µM (inactive)	> 30 µM (inactive)	> 30 µM (inactive)
CC(=O)Nc1cccc(-n2c(=O)n(C3CC3)c(=O)c3c(Nc4ccc(I)cc4F)n(C)c(=O)c(C)c32)c1 [TRAMETINIB]	> 30 µM (inactive)	> 30 µM (inactive)	> 30 µM (inactive)	> 30 µM (inactive)	> 30 µM (inactive)	> 30 µM (inactive)	> 30 µM (inactive)	> 30 µM (inactive)	> 30 µM (inactive)
CO[C@H]1C[C@@H]2CC[C@@H](C)[C@@](O)(O2)C(=O)C(=O)N2CCCC[C@H]2C(=O)O[C@H]([C@H](C)C[C@@H]2CC[C@@H](OCCO)[C@H](OC)C2)CC(=O)[C@H](C)/C=C(\C)[C@@H](O)[C@@H](OC)C(=O)[C@H](C)C[C@H](C)/C=C/C=C/C=C/1C [EVEROLIMUS]	> 30 µM (inactive)	> 30 µM (inactive)	> 30 µM (inactive)	> 30 µM (inactive)	> 30 µM (inactive)	> 30 µM (inactive)	> 30 µM (inactive)	> 30 µM (inactive)	> 30 µM (inactive)
CN1N=C(N)c2cn([C@@H]3O[C@H](COP(=O)(O)O)[C@@H](O)[C@H]3O)c3ncnc1c23 [TRICIRIBINE PHOSPHATE]	> 30 µM (inactive)	> 30 µM (inactive)	> 30 µM (inactive)	> 30 µM (inactive)	> 30 µM (inactive)	> 30 µM (inactive)	> 30 µM (inactive)	> 30 µM (inactive)	> 30 µM (inactive)
O=c1sn(-c2cccc3ccccc23)c(=O)n1Cc1ccccc1 [TIDEGLUSIB]	> 30 µM (inactive)	> 30 µM (inactive)	> 30 µM (inactive)	> 30 µM (inactive)	> 30 µM (inactive)	> 30 µM (inactive)	> 30 µM (inactive)	> 30 µM (inactive)	> 30 µM (inactive)
C=CC(=O)N1CCC(Oc2cc3c(Nc4ccc(Cl)c(Cl)c4F)ncnc3cc2OC)CC1 [POZIOTINIB]	> 30 µM (inactive)	> 30 µM (inactive)	> 30 µM (inactive)	> 30 µM (inactive)	> 30 µM (inactive)	> 30 µM (inactive)	> 30 µM (inactive)	> 30 µM (inactive)	> 30 µM (inactive)
CN1CC[C@@H](c2c(O)cc(O)c3c(=O)cc(-c4ccccc4Cl)oc23)[C@@H]1CO	> 30 µM (inactive)	> 30 µM (inactive)	> 30 µM (inactive)	1.34 µM (active)	> 30 µM (inactive)	> 30 µM (inactive)	> 30 µM (inactive)	> 30 µM (inactive)	> 30 µM (inactive)

Further lines, results first:

Kd (Activin receptor type-1)	Kd [1]	Kd (Aurora kinase A)	Kd [2]	Kd [3]	Kd [4]	Kd [5]	Kd [6]	Kd [7]	SMILES
> 30 µM (inactive)	> 30 µM (inactive)	> 30 µM (inactive)	> 30 µM (inactive)	> 30 µM (inactive)	> 30 µM (inactive)	> 30 µM (inactive)	> 30 µM (inactive)	> 30 µM (inactive)	CCCS(=O)(=O)Nc1ccc(F)c(C(=O)c2c[nH]c3ncc(-c4ccc(Cl)cc4)cc23)c1F [VEMURAFENIB]
16.1 µM (active)	> 30 µM (inactive)	> 30 µM (inactive)	> 30 µM (inactive)	> 30 µM (inactive)	> 30 µM (inactive)	> 30 µM (inactive)	> 30 µM (inactive)	> 30 µM (inactive)	CCN1CCN(Cc2ccc(-c3cc4c(N[C@H](C)c5ccccc5)ncnc4[nH]3)cc2)CC1 [AEE-788]
> 30 µM (inactive)	> 30 µM (inactive)	> 30 µM (inactive)	> 30 µM (inactive)	> 30 µM (inactive)	> 30 µM (inactive)	> 30 µM (inactive)	> 30 µM (inactive)	> 30 µM (inactive)	CC[C@H](Nc1ncnc2[nH]cnc12)c1nc2cccc(F)c2c(=O)n1-c1ccccc1 [IDELALISIB]
> 30 µM (inactive)	> 30 µM (inactive)	> 30 µM (inactive)	> 30 µM (inactive)	> 30 µM (inactive)	> 30 µM (inactive)	> 30 µM (inactive)	> 30 µM (inactive)	> 30 µM (inactive)	CC(C)Nc1cc(-c2c[nH]c(C(=O)N[C@H](CO)c3cccc(Cl)c3)c2)c(Cl)cn1 [ULIXERTINIB]
> 30 µM (inactive)	> 30 µM (inactive)	> 30 µM (inactive)	> 30 µM (inactive)	> 30 µM (inactive)	> 30 µM (inactive)	> 30 µM (inactive)	> 30 µM (inactive)	> 30 µM (inactive)	Cn1cc(-c2ccc3nnc(C(F)(F)c4ccc5ncccc5c4)n3n2)cn1 [JNJ-38877605]
> 30 µM (inactive)	> 30 µM (inactive)	> 30 µM (inactive)	> 30 µM (inactive)	> 30 µM (inactive)	> 30 µM (inactive)	> 30 µM (inactive)	> 30 µM (inactive)	> 30 µM (inactive)	C[C@@H]1CN(Cc2ccc(F)cc2)[C@@H](C)CN1C(=O)c1cc2c(C(=O)C(=O)N(C)C)cn(C)c2cc1Cl [TALMAPIMOD]
0.022 µM (active)	> 30 µM (inactive)	> 30 µM (inactive)	> 30 µM (inactive)	> 30 µM (inactive)	> 30 µM (inactive)	0.16 µM	> 30 µM (inactive)	0.003 µM	C1=C/COCc2cc(ccc2OCCN2CCCC2)Nc2nccc(n2)-c2cccc(c2)COC/1 [PACRITINIB]
